In the assay the test system is Aβ42 production. The assay is described as follows: Quantification of Aβ peptide in culture of neurons from rat fetus brain (Aβ42 ELISA). It is filed as cell-based. As to conditions: Neuron, 72 h, rat primary neuronal culture (embryonic day 18 Wistar rat cerebral cortex), medium collected three days after addition of compound, read-out: Aβ42 production reducing effect IC50. Here is the method:
Quantification of Aβ Peptide in Culture of Neurons from Rat Fetus Brain
Primary neuronal cultures were prepared from the cerebral cortex of embryonic day 18 Wistar rats (Charles River Japan, Yokohama, Japan). Specifically, the embryos were aseptically removed from pregnant rats under ether anesthesia. The brain was isolated from the embryo and immersed in an ice-cold L-15 medium (such as Invitrogen Corp. Cat #11415-064, Carlsbad, Calif., USA, or SIGMA L1518). The cerebral cortex was collected from the isolated brain under a stereoscopic microscope. The cerebral cortex fragments collected were enzymatically treated in an enzyme solution containing 0.25% trypsin (Invitrogen Corp. Cat #15050-065, Carlsbad, Calif., USA) and 0.01% DNase (Sigma D5025, St. Louis, Mo., USA) at 37° C. for 30 minutes to disperse the cells. Here, the enzymatic reaction was stopped by adding inactivated horse serum to the solution. The enzymatically treated solution was centrifuged at 1,500 rpm for five minutes to remove the supernatant. 5 to 10 ml of a medium was added to the resulting cell mass. Neurobasal medium (Invitrogen Corp. Cat #21103-049, Carlsbad, Calif., USA) supplemented with 2% B27 supplement (Invitrogen Corp. Cat #17504-044, Carlsbad, Calif., USA), 25 μM 2-mercaptoethanol (2-ME, WAKO Cat #139-06861, Osaka, Japan), 0.5 mM L-glutamine (Invitrogen Corp. Cat #25030-081, Carlsbad, Calif., USA), and Antibiotics-Antimycotics (Invitrogen Corp. Cat #15240-062, Carlsbad, Calif., USA) was used as the medium (Neurobasal/B27/2-ME). However, the above Neurobasal medium not supplemented with 2-ME (Neurobasal/B27) was used for the assay. The cells were redispersed by mild pipetting of the cell mass to which the medium was added. The cell dispersion was filtered through a 40-μm nylon mesh (Cell Strainer, Cat #35-2340, Becton Dickinson Labware, Franklin Lakes, N.J., USA) to remove the remaining cell mass, and thus a neuronal cell suspension was obtained. The neuronal cell suspension was diluted with the medium and then plated in a volume of 100 μl/well at an initial cell density of 5×10^5 cells/cm^2 in a 96-well polystyrene culture plate pre-coated with poly-L or D-lysine (Falcon Cat #35-3075, Becton Dickinson Labware, Franklin Lakes, N.J., USA coated with poly-L-lysine using the method shown below, or BIOCOAT™ cell environments Poly-D-lysine cell ware 96-well plate, Cat #35-6461, Becton Dickinson Labware, Franklin Lakes, N.J., USA). Poly-L-lysine coating was carried out as follows. 100 μg/ml of a poly-L-lysine (SIGMA P2636, St. Louis, Mo., USA) solution was aseptically prepared with a 0.15 M borate buffer (pH 8.5). […] of the solution was added to the 96-well polystyrene culture plate and incubated at room temperature for one or more hours or at 4° C. overnight or longer. Thereafter, the coated 96-well polystyrene culture plate was washed with sterile water four or more times, and then dried or rinsed with, for example, sterile PBS or medium, and used for cell plating. The plated cells were cultured in the culture plate at 37° C. in 5% CO2-95% air for one day. Then, the total amount of the medium was replaced with a fresh Neurobasal/B27/2-ME medium, and then the cells were cultured for further three days.
The drug was added to the culture plate on Day 4 of culture as follows. The total amount of the medium was removed from the wells, and 180 μl/well of Neurobasal medium not containing 2-ME and containing 2% B-27 (Neurobasal/B27) was added thereto. A solution of the test compound in dimethyl sulfoxide (hereinafter abbreviated as DMSO) was diluted with Neurobasal/B27 to a concentration 10-fold higher than the final concentration. 20 μl/well of the dilution was added to and sufficiently mixed with the medium. The final DMSO concentration was 1% or less. Only DMSO was added to the control group.
The cells were cultured for three days after addition of the compound, and the total amount of the medium was collected. […]
A general note: An ELISA detects its analyte on a solid surface through an enzyme-linked reagent.

Our source for the IC50 values is patent US20110207723A1, “NOVEL FUSED AMINODIHYDROTHIAZINE DERIVATIVE” (EISAI R&D MANAGEMENT CO., LTD., priority 2008, published 2011).

Molecules are shown by their SMILES.

As usually defined, the IC50 is the concentration at which inhibition is half-maximal. For `CO[C@H]1COC[C@]2(c3cc(NC(=O)c4ccc(C#N)cn4)ccc3F)N=C(N)SC[C@H]12` (relative stereo) [Example 30, N-[3-((4aS*,5R*,8aS*)-2-amino-5-methoxy-4,4a,5,6-tetrahydro-7-oxa-3-thia-1-azanaphthalen-8a-yl)-4-fluorophenyl]-5-cyanopyridine-2-carboxamide], the IC50 stood at 6 nM. With `NC1=N[C@@]2(c3cc(NC(=O)c4ccncn4)ccc3F)CO[C@@H](C(F)(F)F)C[C@H]2CS1` (relative stereo) [Example 40, N-[3-((4aR*,6R*,8aS*)-2-amino-6-trifluoromethyl-4,4a,5,6-tetrahydro-7-oxa-3-thia-1-azanaphthalen-8a-yl)-4-fluorophenyl]-pyrimidine-4-carboxamide] the figure was 2 nM; with `N#Cc1ccc(C(=O)Nc2ccc(OC(F)(F)F)c([C@]34COCC[C@H]3CSC(N)=N4)c2)nc1` (single isomer, unassigned) [Example 4, N-[3-((4aR*,8aS*)-2-amino-4,4,5,6-tetrahydro-7-oxa-3-thia-1-azanaphthalen-8a-yl)-4-trifluoromethoxyphenyl]-5-cyanopyridine-2-carboxamide], 11 nM. With `NC1=N[C@@]2(c3cc(NC(=O)c4ccccn4)ccc3F)CO[C@@H](C(F)(F)F)C[C@H]2CS1` (relative stereo) [Example 38, N-[3-((4aR*,6R*,8aS*)-2-amino-6-trifluoromethyl-4,4a,5,6-tetrahydro-7-oxa-3-thia-1-azanaphthalen-8a-yl)-4-fluorophenyl]-pyridine-2-carboxamide] the figure was 3 nM; with `NC1=N[C@@]2(c3cc(NC(=O)c4cnc(C(F)F)cn4)ccc3F)CO[C@@H](C(F)(F)F)C[C@H]2CS1` (relative stereo) [Example 43, N-[3-((4aR*,6R*,8aS*)-2-amino-6-trifluoromethyl-4,4a,5,6-tetrahydro-7-oxa-3-thia-1-azanaphthalen-8a-yl)-4-fluorophenyl]-5-difluoromethylpyrazine-2-carboxamide], 1.7 nM; with `NC1=N[C@@]2(c3cc(NC(=O)c4cnc(OCF)cn4)ccc3F)COCC[C@H]2CS1` (relative stereo) [Example 2, N-[348S*,8aR*)-2-amino-4,4a,5,6-tetrahydro-7-oxa-3-thia-1-azanaphthalen-8a-yl)-4-fluorophenyl]-5-fluoromethoxypyrazine-2-carboxamide], 2 nM. With `NC1=N[C@@]2(c3cc(NC(=O)c4ccc(F)cn4)ccc3F)CO[C@@H](C(F)(F)F)C[C@H]2CS1` (relative stereo) [Example 37, N-[3-((4aR*,6R*,8aS*)-2-amino-6-trifluoromethyl-4,4a,5,6-tetrahydro-7-oxa-3-thia-1-azanaphthlen-8a-yl)-4-fluorophenyl]-5-fluoropyriidne-2-carboxamide] the figure was 2 nM.

With `C[C@H]1SC(N)=N[C@@]2(c3cc(NC(=O)c4cnc(C(F)F)cn4)ccc3F)COCC[C@@H]12` (relative stereo) [Example 32, N-[3-((2R*,4aR*,8aS*)-2-amino-4-methyl-4,4a,5,6-tetrahydro-7-oxa-3-thia-1-azanaphthalen-8a-yl)-4-fluorophenyl]-5-difluoromethylpyrazine-2-carboxamide], the IC50 amounted to 3 nM.

Consider `NC1=N[C@@]2(c3cc(NC(=O)c4ccc(Cl)cn4)ccc3F)COC[C@@H](F)[C@H]2CS1` [Example 18, N-[3-((4aS,5S,8aS)-2-amino-5-fluoro-4,4a,5,6-tetrahydro-7-oxa-3-thia-1-azanaphthalen-8a-yl)-4-fluorophenyl]-5-chloropyridine-2-carboxamide], for which the IC50 is 7 nM. Then `NC1=N[C@@]2(c3cc(NC(=O)c4cnc(OCF)cn4)ccc3F)CO[C@@H](C(F)(F)F)C[C@H]2CS1` (relative stereo) [Example 39, N-[3-((4aR*,6R*,8aS*)-2-amino-6-trifluoromethyl-4,4a,5,6-tetrahydro-7-oxa-3-thia-1-azanaphthalen-8a-yl)-4-fluorophenyl]-5-fluoromethoxypyrazine-2-carboxamide], with 1 nM; and `NC1=N[C@@]2(c3cc(NC(=O)c4ncc(Br)cc4Br)ccc3F)COCC[C@H]2CS1` (single isomer, unassigned) [Example 54, N-[3-((4aR*,8aS*)-2-amino-4,4a,5,6-tetrahydro-7-oxa-3-thia-1-azanaphthalen-8a-yl)-4-fluorophenyl]-3,5-dibromopyridine-2-carboxamide], with 2 nM; and `C[C@@H]1COC[C@]2(c3cc(NC(=O)c4cnc(OC(F)F)cn4)ccc3F)N=C(N)SC[C@H]12` (relative stereo) [Example 25, N-[3-((4aR*,5S*,8aS*)-2-amino-5-methyl-4,4a,5,6-tetrahydro-7-oxa-3-thia-1-azanaphthalen-8a-yl)-4-fluorophenyl]-5-difluoromethoxypyrazine-2-carboxamide], with 14 nM. As for `COC[C@H]1C[C@H]2CSC(N)=N[C@@]2(c2cc(NC(=O)c3cnc(C(F)F)cn3)ccc2F)CO1` (relative stereo) [Example 12, N-[3-((4aR*,6R*,8aS*)-2-amino-6-methoxymethyl-4,4a,5,6-tetrahydro-7-oxa-3-thia-1-azanaphthalen-8a-yl)-4-fluorophenyl]-5-difluoromethylpyrazine-2-carboxamide], the IC50 is 1.1 nM. Then `NC1=N[C@@]2(c3cc(NC(=O)c4ccc(OC(F)F)cn4)ccc3F)COC[C@@H](F)[C@H]2CS1` [Example 20, N-[3-((4aS,5S,8aS)-2-amino-5-fluoro-4,4a,5,6-tetrahydro-7-oxa-3-thia-1-azanaphthalen-8a-yl)-4-fluorophenyl]-5-difluoromethoxypyridine-2-carboxamide], with 9 nM; and `NC1=N[C@@]2(c3cc(NC(=O)c4ccc(C(F)(F)F)cn4)ccc3F)COCC[C@H]2CS1` (single isomer, unassigned) [Example 55, N-[3-((4aR*,8aS*)-2-amino-4,4a,5,6-tetrahydro-7-oxa-3-thia-1-azanaphthalen-8a-yl)-4-fluorophenyl]-5-trifluoromethylpyridine-2-carboxamide], with 1.4 nM; and `NC1=N[C@@]2(c3cc(-c4cccnc4F)ccc3F)CO[C@@H](COCc3ccccc3)C[C@H]2CS1` [Example 66, (4aR,6R,8aS)-8a-[2-fluoro-5-(2-fluoropyridin-3-yl)phenyl]-6-benzyloxymethyl-4,4a,5,6,8,8a-hexahydro-7-oxa-3-thia-1-azanaphthalen-2-ylamine], with 263 nM. With `C[C@H]1COC[C@]2(c3cc(NC(=O)c4cnc(C(F)F)cn4)ccc3F)N=C(N)SC[C@H]12` (relative stereo) [Example 29, N-[3-((4aR*,5R*,8aS*)-2-amino-5-methyl-4,4a,5,6-tetrahydro-7-oxa-3-thia-1-azanaphthalen-8a-yl)-4-fluorophenyl]-5-difluoromethylpyrazine-2-carboxamide] the figure was 3 nM. With `NC1=N[C@@]2(c3cc(-c4cccnc4F)ccc3F)CO[C@@H](C(F)(F)F)C[C@H]2CS1` (relative stereo) [Example 59, (±)-(4aR*,6R*,8aS*)-8a-[2-fluoro-5-(2-fluoropyridin-3-yl)phenyl]-6-trifluoromethyl-4,4a,5,6,8,8a-hexahydro-7-oxa-3-thia-1-azanaphthalen-2-ylamine] the figure was 87 nM.
